Measured values from patent US20160354429A1, “Use of Melanocortins to Treat Insulin Sensitivity” (Ipsen Pharma S.A.S., priority 2007, published 2016).
Bridge positions count the residues as written; N and C are the ends. Square brackets hold non-standard residues; d marks the D form. Peptide text beside a SMILES is read from it. GABA = NCCCC(=O)O

How the values were obtained:
hMC5-R [1] = biological target: T1, hMC5-R (Homo sapiens, UniProt P33032); test: cyclic AMP bioassay, hMC5-R; assay type: cell-based
T1 construct: expressed in transfected cells
Procedure: Intracellular cyclic AMP (cAMP) levels were determined by an electrochemiluminescence (ECL) assay (Meso Scale Discovery®, Gaithersburg, Md.; referred to hereinafter as MSD). […] Transgenic CHO-K1 cells stably expressing hMC receptor subtypes 1, 3, 4 or 5 were dispensed at a density of approximately 7,000 cells/well in 384-well Multi-Array® plates (MSD) containing integrated carbon electrodes and coated with anti-cAMP antibody. Increasing concentrations of the test compounds were added and the cells were incubated for approximately 40 minutes at approximately 37° C. […] At the end of the second incubation period read buffer (Tris-buffered solution containing an ECL co-reactant and Triton X-100 at ph 7.8) was added and the cAMP levels in the cell lysates were immediately determined by ECL detection with a Sector Imager 6000 Reader® (MSD). Data were analyzed using a computer-assisted non-linear regression analysis (XL fit; IDBS) and reported as either an EC50 value or a Kb value.

hMC1-R = biological target: T2, hMC1-R (Homo sapiens, UniProt Q01726); test: Radioligand binding assay, hMC1-R; conditions: competition with [125I]-NDP-α-MSH, CHO-K1 cell membranes
T2 construct: expressed in transfected cells

hMC3-R = biological target: T3, hMC3-R (Homo sapiens, UniProt P41968); test: Radioligand binding assay, hMC3-R; conditions: competition with [125I]-NDP-α-MSH, CHO-K1 cell membranes
T3 construct: expressed in transfected cells

hMC4-R = biological target: T4, hMC4-R (Homo sapiens, UniProt P32245); test: Radioligand binding assay, hMC4-R; conditions: competition with [125I]-NDP-α-MSH, CHO-K1 cell membranes
T4 construct: expressed in transfected cells

hMC5-R [2] = biological target: T1, hMC5-R; test: Radioligand binding assay, hMC5-R; conditions: competition with [125I]-NDP-α-MSH, CHO-K1 cell membranes
Procedure: Cellular membranes used for the in vitro receptor binding assays were obtained from transgenic CHO-K1 cells stably expressing hMC-R receptor subtypes 1, 3, 4 or 5. […] The pellets were resuspended in the same buffer and centrifuged at 50,000 g for 10 minutes at approximately 4° C. The washed pellets containing the cellular membranes were stored at approximately −80° C.
Filters were washed three times with 50 mM Tris-HCl at pH 7.4 at a temperature of approximately 0-4° C. and then assayed for radioactivity using a Packard Topcount® scintillation counter. Binding data were analyzed by computer-assisted non-linear regression analysis (XL fit; IDBS).

T2 sequence (Q01726 whole entry): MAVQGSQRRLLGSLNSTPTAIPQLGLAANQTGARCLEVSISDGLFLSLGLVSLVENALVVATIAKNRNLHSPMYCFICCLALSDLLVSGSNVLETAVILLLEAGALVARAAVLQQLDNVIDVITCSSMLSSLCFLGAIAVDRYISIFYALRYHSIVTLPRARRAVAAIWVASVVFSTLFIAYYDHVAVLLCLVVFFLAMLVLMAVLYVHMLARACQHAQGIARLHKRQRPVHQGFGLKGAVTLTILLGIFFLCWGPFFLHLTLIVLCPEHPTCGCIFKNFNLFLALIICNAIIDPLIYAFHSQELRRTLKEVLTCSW
T1 sequence (P33032 whole entry): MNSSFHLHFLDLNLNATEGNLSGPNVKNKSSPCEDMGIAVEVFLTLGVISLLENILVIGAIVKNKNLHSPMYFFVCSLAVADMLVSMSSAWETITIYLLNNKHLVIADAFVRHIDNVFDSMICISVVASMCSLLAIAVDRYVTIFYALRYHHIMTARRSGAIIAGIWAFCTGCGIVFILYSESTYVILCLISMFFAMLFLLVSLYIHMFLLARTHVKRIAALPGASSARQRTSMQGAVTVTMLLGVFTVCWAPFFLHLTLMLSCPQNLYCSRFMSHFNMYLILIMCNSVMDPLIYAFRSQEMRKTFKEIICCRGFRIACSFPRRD
T4 sequence (P32245 whole entry): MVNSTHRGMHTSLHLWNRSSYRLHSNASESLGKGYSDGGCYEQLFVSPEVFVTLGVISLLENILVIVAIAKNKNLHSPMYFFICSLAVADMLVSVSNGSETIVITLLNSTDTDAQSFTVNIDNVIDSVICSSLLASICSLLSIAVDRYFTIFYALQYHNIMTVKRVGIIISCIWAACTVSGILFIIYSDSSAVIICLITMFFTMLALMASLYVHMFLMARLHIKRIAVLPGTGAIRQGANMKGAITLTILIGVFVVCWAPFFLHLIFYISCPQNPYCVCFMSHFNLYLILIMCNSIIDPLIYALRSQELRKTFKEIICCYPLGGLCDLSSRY
T3 sequence (P41968 whole entry): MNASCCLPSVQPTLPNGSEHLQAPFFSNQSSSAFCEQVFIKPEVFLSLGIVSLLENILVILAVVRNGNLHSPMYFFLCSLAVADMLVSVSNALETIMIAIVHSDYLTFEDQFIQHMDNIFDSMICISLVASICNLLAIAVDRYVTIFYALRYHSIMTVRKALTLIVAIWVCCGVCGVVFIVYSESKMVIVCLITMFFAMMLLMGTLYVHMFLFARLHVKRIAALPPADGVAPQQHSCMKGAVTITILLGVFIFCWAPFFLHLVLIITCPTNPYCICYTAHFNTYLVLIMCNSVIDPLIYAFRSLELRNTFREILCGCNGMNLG

Ki (hMC1-R) [nM] | Ki (hMC3-R) [nM] | Ki (hMC4-R) [nM] | Ki (hMC5-R [2]) [nM] | SMILES | EC50 (hMC5-R [1]) [nM]
– | – | – | – | CC(=O)N[C@@H](CCCNC(=N)N)C(=O)N[C@H]1CSSC(C)(C)[C@@H](C(N)=O)NC(=O)[C@H](Cc2c[nH]c3ccccc23)NC(=O)[C@H](CCCNC(=N)N)NC(=O)[C@@H](Cc2ccccc2)NC(=O)[C@H](Cc2c[nH]cn2)NC(=O)[C@@H](C)NC1=O [Ac-Arg-c(Cys-D-Ala-His-D-Phe-Arg-Trp-Pen)-NH2] | ≥ 10000
0.995 | – | – | – | CCCC[C@H](NC(C)=O)C(=O)N[C@H]1CSSC[C@@H](C(N)=O)NC(=O)CCNC(=O)[C@H](Cc2c[nH]c3ccccc23)NC(=O)[C@H](CCCNC(=N)N)NC(=O)[C@@H](Cc2ccccc2)NC(=O)[C@H](Cc2c[nH]cn2)NC(=O)[C@@H](C)NC1=O [Ac-Nle-c(Cys-D-Ala-His-D-Phe-Arg-Trp-β-Ala-Cys)-NH2] | –
0.254 | 18.5 | 2.13 | 0.714 | CC(=O)N[C@@H](Cc1ccccc1)C(=O)N[C@H]1CSSC[C@@H](C(N)=O)NC(=O)CCCNC(=O)[C@H](Cc2c[nH]c3ccccc23)NC(=O)[C@H](CCCNC(=N)N)NC(=O)[C@@H](Cc2ccccc2)NC(=O)[C@H](Cc2c[nH]cn2)NC1=O [Ac-Phe-c(Cys-His-D-Phe-Arg-Trp-Gaba-Cys)-NH2] (Ac-FCH[dF]RW[GABA]C-NH2; disulfide 2-8) | –
